What all share (format): cell-based
Assay [1] has as its target T1, EGFR-L858R/C797S (H1975-clone #8 cells) (Homo sapiens, UniProt P00533, C797S/L858R).
T1 construct: expressed in transfected cells; host or cells: H1975 (endogenous EGFR knocked out, clone #8)
Description: Cell degradation of EGFR, HTRF assay, H1975-clone#8 (L858R/C797S) cells. To be noted: 16 h treatment; for DC50: EGFR degradation; for Dmax: maximum percentage of degradation. The method, then:
The EGFR over-expressed cells then underwent knockout, in which the EGFR targeting sgRNA was designed to only target the endogenous EGFR copies and preserve the exogenous EGFR copies. Followed by the knockout, the edited H1975 cells were seeded in 96 well plates at the concentration of […], cultured for about 2 weeks to allow single clones formation. The formed clones were screened by DNA sequencing and whole exon sequencing analysis for the desired edition.
(§1) H1975-#8 and BaF3-L858R cells are treated with compounds diluted in 0.1% DMSO cell culture medium on day 2, incubate for 16 h, 37° C., 5% CO2. the final concentration of compounds in all assay is start with 10 uM, 5-fold dilution, total 8 doses were included.
(§2) After 16 h treatment, for H1975-#8 cells, add 100 ul HTRF 1× lysis buffer to each well; for BaF3-L858R cells, add 20 μl 4× lysis buffer to each well; seal the plate and incubate 1 hour at room temperature on a plate shaker; Once the cells are lysed, 16 μL of cell lysate are transferred to a PE 384-well HTRF detection plate; 4 μL of pre-mixed HTRF antibodies are added to each well; Cover the plate with a plate sealer, spin 1000 rpm for 1 min, Incubate overnight at room temperature; Read on BMG PheraStar with HTRF protocol (337 nm-665 nm-620 nm).
(§3) High control=Cell group with added DMSO and without compound, indicating microplate readings without EGFR degradation;
(§4) Dmax is the maximum percentage of inhibition (degradation).
(§5) The IC50 (DC50) value of a compound can be obtained by fitting the following equation
(§6) Y=Bottom+(TOP−Bottom)/(1+((IC50/X)^hillslope))
(§7) Wherein, X and Y are known values, and IC50, Hillslope, Top and Bottom are the parameters obtained by fitting with software. […] The experimental data were fitted by calculating and analyzing with Dotmatics data analysis software.

The target of assay [2] is p-EGFR Del19/C797S (H1975-clone #23 cells) (Homo sapiens, UniProt P00533). Briefly: Cell p-EGFR inhibition assay, HTRF, H1975-clone#23 (DEL19/C797S) cells. As to conditions: 16 h treatment; for Imax (%): maximum percentage of pEGFR inhibition; for pIC50: pEGFR inhibition. The method, then:
The EGFR over-expressed cells then underwent knockout, in which the EGFR targeting sgRNA was designed to only target the endogenous EGFR copies and preserve the exogenous EGFR copies. Followed by the knockout, the edited H1975 cells were seeded in 96 well plates at the concentration of 1 cell/well, cultured for about 2 weeks to allow single clones formation. The formed clones were screened by DNA sequencing and whole exon sequencing analysis for the desired edition.
(§8) H1975-#23 and BaF3-L858R cells are treated with compounds diluted in 0.1% DMSO cell culture medium on day 2, incubate for 16 h, 37° C., 5% CO2. the final concentration of compounds in all assay is start with 10 uM, 5-fold dilution, total 8 doses were included.
(§9) After 16 h treatment, for H1975-#23 cells, add 50 ul HTRF 1× lysis buffer to each well; for BaF3-L858R cells, add 20 μl 4× lysis buffer to each well; seal the plate and incubate 1 hour at room temperature on a plate shaker; Once the cells are lysed, 16 μL of cell lysate are transferred to a PE 384-well HTRF detection plate; 4 μL of pre-mixed HTRF antibodies are added to each well; Cover the plate with a plate sealer, spin 1000 rpm for 1 min, Incubate overnight at room temperature; Read on BMG PheraStar with HTRF protocol (337 nm-665 nm-620 nm).
(§10) High control=Cell group with added DMSO and without compound, indicating microplate readings without p-EGFR inhibited.
(§11) Imax is the maximum percentage of inhibition.
(§12) The IC50 value of a compound can be obtained by fitting the following equation.
as §7
For orientation: Time-resolved FRET reads energy transfer from a long-lived donor to a nearby acceptor.

Assay [3] concerns the target T2, EGFR L858R (BaF3-L858R cells) (Homo sapiens, UniProt P00533, L858R).
T2 construct: host or cells: BaF3
Briefly: Cell degradation of EGFR, HTRF assay, BaF3-L858R cells. As to conditions: 16 h treatment; for DC50: EGFR degradation; for Dmax: maximum percentage of degradation. The method, then:
(§13) BaF3-L858R (abbv. L858R) cell were purchased from Kangyuan Bochuang Biotechnology (Beijing) Co., Ltd.
as §1, §2, §3, §4, §5, §6, §7

The target of assay [4] is T3, p-EGFR L858R (BaF3-L858R cells) (Homo sapiens, UniProt P00533, L858R).
T3 construct: host or cells: BaF3
Briefly: Cell p-EGFR inhibition assay, HTRF, BaF3-L858R cells. As to conditions: 16 h treatment; for Imax (%): maximum percentage of pEGFR inhibition; for pIC50: pEGFR inhibition. Here is the method:
as §13, §8, §9, §10, §11, §12, §7

Structures are written as SMILES. pIC50: −log10 of the molar value.

As a reminder, the DC50 is the concentration giving 50% degradation. What is called Dmax is the largest share of the target that was removed. As a reminder, the pIC50 is −log10 of the IC50, conventionally taken in molar units. Read a low pIC50 as a large IC50. With `Cc1cc2cc(n1)-c1c(C)nn(C)c1OC[C@H]1CC[C@H](C1)CN1/C(=N/C2=O)Nc2ccc(N3C[C@@H](C)N(C4CCN(c5cc(F)c([C@H]6CCC(=O)NC6=O)c(F)c5)CC4)C[C@H]3C)cc21` [Example 196, (R)-3-(4-(4-((2R,5R)-2,5-dimethyl-4-((7^1R,7^3S,E)-1^1,1^32^6-trimethyl-3-oxo-5^2,5^3-dihydro-1^1H,5^1H-9-oxa-4-aza-5(2,1)-benzo[d]imidazola-2(2,4)-pyridina-1(4,5)-pyrazola-7(1,3)-cyclopentanacyclononaphane-5^6-yl)piperazin-1-yl)piperidin-1-yl)-2,6-difluorophenyl)piperidine-2,6-dione], the DC50 in assay [1] turned out to be 3.21 nM; in assay [3], 1.61 nM. Besides, the Dmax in assay [1] turned out to be 88.8%; in assay [3], 91.9%. The “Imax (%)” value in assay [2] turned out to be 99.76%; in assay [4], 85.84%. For the same compound, the pIC50 in assay [2] is 8.55; in assay [4], 8.51.

Take `Cc1cc2cc(n1)-c1c(C)nn(C)c1OC[C@H]1CC[C@H](C1)CN1/C(=N/C2=O)Nc2ccc(N3CCN(C4CCN(c5cc(F)c([C@H]6CCC(=O)NC6=O)c(F)c5)CC4)C[C@@H]3CF)cc21` [Example 211, (R)-3-(2,6-difluoro-4-(4-((R)-3-(fluoromethyl)-4-((7R,7^3S,E)-1^1,1^3,2^6-trimethyl-3-oxo-5^2,5^3-dihydro-1^1H,5^1H-9-oxa-4-aza-5(2,1)-benzo[d]imidazola-2(2,4)-pyridina-1(4,5)-pyrazola-7(1,3)-cyclopentanacyclononaphane-5^6-yl)piperazin-1-yl)piperidin-1-yl)phenyl)piperidine-2,6-dione]: the values for the DC50 in assay [1] and in assay [3] were 3.07 nM and 0.73 nM, respectively. In addition, the Dmax was determined as 88.8% in assay [1] and 91.3% in assay [3]. The entries for the “Imax (%)” value in assay [2] and in assay [4] were 99.96% and 89.34%, respectively. In addition, the pIC50 was 8.80 in assay [2] and 8.69 in assay [4].

On to `Cc1cc2cc(n1)-c1cnn(C)c1OC[C@H]1CCC(C1)CN1/C(=N/C2=O)Nc2ccc(N3CCN([C@H]4CCN(c5ccc(C6CCC(=O)NC6=O)nc5C)CC4(F)F)CC3)cc21` (stereo partly drawn) [Example 83, 3-(5-((S)-4-(4-((7^1R,7^3S,E)-1^1,2^6-dimethyl-3-oxo-5^2,5^3-dihydro-1^1H,5^1H-9-oxa-4-aza-5(2,1)-benzo[d]imidazola-2(2,4)-pyridina-1(4,5)-pyrazola-7(1,3)-cyclopentanacyclononaphane-5^6-yl)piperazin-1-yl)-3,3-difluoropiperidin-1-yl)-6-methylpyridin-2-yl)piperidine-2,6-dione], for which, in assay [1], half-maximal degradation (DC50) was put at 5.64 nM and the greatest degradation seen (Dmax) was 81.8%. Moreover, in assay [2], the “Imax (%)” value is given as 100.7% and the pIC50 was 9.00. In assay [3], this compound displayed a half-maximal degradation concentration (DC50) of 4.08 nM and a maximal degradation (Dmax) of 69.1%. In addition, in assay [4], the “Imax (%)” value was determined as 96.5% and the pIC50 was 7.74.

`COC[C@@H]1CN(c2cc3c(cc2OC)N/C2=N\C(=O)c4cc(C)nc(c4)-c4c(C)nn(C)c4OC[C@H]4CC[C@H](C4)CN23)CCN1C1CCN(c2cc(F)c([C@H]3CCC(=O)NC3=O)c(F)c2)CC1` [Example 151, (R)-3-(2,6-difluoro-4-(4-((S)-4-((7^1R,7^3S,E)-5^5-methoxy-1^1,1^3,2^6-trimethyl-3-oxo-5^2,5^3-dihydro-1^1H,5^1H-9-oxa-4-aza-5(2,1)-benzo[d]imidazola-2(2,4)-pyridina-1(4,5)-pyrazola-7(1,3)-cyclopentanacyclononaphane-5^6-yl)-2-(methoxymethyl)piperazin-1-yl)piperidin-1-yl)phenyl)piperidine-2,6-dione]: in assay [1], half-maximal degradation (DC50) was put at 2.62 nM and the Dmax was 88.5%. Moreover, in assay [2], the “Imax (%)” value is recorded as 99.54% and the pIC50 was 8.99. In assay [3], this compound displayed a 50% degradation concentration (DC50) of 1.68 nM and a Dmax of 90.6%. Besides, in assay [4], the “Imax (%)” value is 95.95% and the negative-log IC50 (pIC50) is 8.30.

In assay [1], `Cc1cc2cc(n1)-c1cnn(C)c1OC[C@H]1CC[C@H](C1)CN1/C(=N/C2=O)Nc2ccc(N3CCN(CC4CN(c5ccc6c(c5)CN(C5CCC(=O)NC5=O)C6=O)C4)CC3)cc21` (stereo partly shown) [Example 35, 3-(5-(3-((4-((7^1R,7^3S,E)-1^1,2^6-dimethyl-3-oxo-5^2,5^3-dihydro-1^1H,5^1H-9-oxa-4-aza-5(2,1)-benzo[d]imidazola-2(2,4)-pyridina-1(4,5)-pyrazola-7(1,3)-cyclopentanacyclononaphane-5^6-yl)piperazin-1-yl)methyl)azetidin-1-yl)-1-oxoisoindolin-2-yl)piperidine-2,6-dione] gave a DC50 of 0.6 nM and a Dmax of 58%. In assay [2], the “Imax (%)” value was found to be 101.1% and the pIC50 is 9.30. In assay [3], this compound gave a 50% degradation concentration (DC50) of 0.49 nM and a maximal degradation (Dmax) of 91.8%. In addition, in assay [4], the “Imax (%)” value amounted to 91.6% and the pIC50 was 8.89.

In assay [1], `COCC1(N2CCN(c3ccc4c(c3)N3CC5CC[C@H](COc6c(cnn6C)-c6cc(cc(C)n6)C(=O)/N=C/3N4)C5)CC2)CCN(c2ccc(C3CCC(=O)NC3=O)nc2C)CC1` (stereo partly shown) [Example 106, 3-(5-(4-(4-((7^1R,7^3S,E)-1^1,2^6-dimethyl-3-oxo-5^2,5^3-dihydro-1^1H,5^1H-9-oxa-4-aza-5(2,1)-benzo[d]imidazola-2(2,4)-pyridina-1(4,5)-pyrazola-7(1,3)-cyclopentanacyclononaphane-5^6-yl)piperazin-1-yl)-4-(methoxymethyl)piperidin-1-yl)-6-methylpyridin-2-yl)piperidine-2,6-dione] registered a DC50 of 2.45 nM and a Dmax of 83.3%. For the same compound, in assay [2], the “Imax (%)” value is 99.8% and the negative-log IC50 (pIC50) was 9.10. In assay [3], the DC50 was determined as 6.69 nM and the Dmax was 82.5%. Moreover, in assay [4], the “Imax (%)” value was 97.6% and the negative logarithm of the IC50 (pIC50) was 7.80.

As for `Cc1cc2cc(n1)-c1cnn(C)c1OC[C@H]1CC[C@H](C1)CN1/C(=N/C2=O)Nc2ccc(N3CCN(C4CCN(c5ccc(C6CCC(=O)NC6=O)nc5C)CC4)CC3)cc21` (stereo partly shown) [Example 2, 3-(5-(4-(4-((7^1R,7^3S,E)-1^1,2^6-dimethyl-3-oxo-5^2,5^3-dihydro-1^1H,5^1H-9-oxa-4-aza-5(2,1)-benzo[d]imidazola-2(2,4)-pyridina-1(4,5)-pyrazola-7(1,3)-cyclopentanacyclononaphane-5^6-yl)piperazin-1-yl)piperidin-1-yl)-6-methylpyridin-2-yl)piperidine-2,6-dione], the DC50 in assay [1] was found to be 1.38 nM; in assay [3], 0.879 nM. Moreover, the values for the Dmax in assay [1] and in assay [3] were 72.6% and 87.2%, respectively.
